Tests used:
[1] = Enzymatic activity of mammalian ASTs transiently expressed in 293 EBNA cells; format: biochemical
Experimental: A forward primer and a reverse primer were prepared on gene sequences encoding the N-terminal and C-terminal of each mammalian AST, and a cDNA encoding the full-length AST was prepared by a PCR amplification using the forward primer, the reverse primer, Pyrobest DNA polymerase (produced by Takara Shuzo Co.), and an airway cDNA as a template. On the other hand, a product obtained by cleaving pcDNA3 (produced by Invitrogen Corp.) with restriction enzymes NruI and KpnI, and the promoter domain of Elongation Factor-1a (EF-1 a) from human genome were amplified by a PCR using a forward primer: […] and a reverse primer: […]. […]
Human fetal kidney-originated 293 EBNA cells (Invitrogen Corp.) were cultured in a 10 cm schale, and the about 5.8×10^6 cells were transfected with 28 μg of each expression plasmid prepared in (1) in 56 μL of LipofectAMINE 2000 (produced by GibcoBRL Corp.) according to an appended manual. […] 40 μL of the above-described assay sample was mixed with 20 μL of a synthetic substrate solution (a solution obtained by diluting a 10 mM Boc-Phe-Ser-Arg-MCA DMSO (dimethyl sulfoxide) solution with the buffer solution for the AST activity assay 50 times), and the increase of the fluorescence intensity per minute was assayed (fluorescence wavelength: 460 nm, excitation wavelength: 380 nm) to determine the enzymatic activity.

NCI-H292 cells = assay: AB-PAS staining of mucus glycoprotein in NCI-H292 cells; format: cell-based, human; details: FIG. 1 and 2
Experimental: (§1) NCI-H292 cells (human pulmonary mucoepidermoid tumor cell strain, purchased from ATCC) were suspended in 10% FCS (Fetal Calf Serum)-containing RPMI-1640 (produced by Gibco Corp.), sowed on a Lab-Tek 8 well chamber slide (produced by Nunc Corp.) in a density of 6.0×10^4 cells/cm^2, cultured for 72 hours, subjected to the replacement of the culture solution by RPMI-1640 containing 0.1% of BSA, and further cultured for 24 hours.
On the day of the treatment, the culture solution of each well was replaced by RPMI-1640 (containing 0.1% BSA) containing EGF (5 ng/mL, produced by Becton Dickinson Corp.), HB-EGF (5 ng/mL, produced by R & D Corp.), TGF-α (5 ng/mL, produced by Peprotech Corp.), or PBS to start the treatment. Then, the cells were incubated at 37° C. for 24 hours.
After the prescribed 24 hours treatment, the culture supernatant was removed. The residue was once washed with PBS, mixed with 4% paraformaldehyde/PBS, and then allowed to stand at room temperature for one hour to immobilize the cells. The immobilized cells were twice washed with Milli Q water and then stained with AB-PAS. The staining was carried out according to a book (“All of new dyeing methods” p136-150 (Iyaku Shuppansha)). After staining, the cells were sequentially immersed in 70, 80, and 100% ethanol for five minutes, respectively, to remove water, sealed in an Aquatex (produced by Merck Corp.), and then subjected to the observation of the staining image with an optical microscope. From the results, it was clarified that all of HAST, TGF-α, EGF, and HB-EGF promoted the production of the mucus glycoprotein.
as §1, with “(purchased” for “(human pulmonary mucoepidermoid tumor cell strain, purchased”, “FCS-containing” for “FCS (Fetal Calf Serum)-containing”, “hours. […]” for “hours.”

With “HAST: human airway-specific trypsin-like enzyme; propeptide moiety bound to trypsin-like protein moiety via a disulfide bond” the “Cell lysate Fluorescence intensity ratio (Human:100)” value ([1]; 293 EBNA cell lysate, three days after transfection) was 100, the “Sup Fluorescence intensity ratio (Human:100)” value ([1]; 293 EBNA, Sup) was 100 and the “production of the mucus glycoprotein” value (NCI-H292 cells) was “promoted”.
